Assay results reported in PubChem BioAssay (NCI).
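Cells were grown in 96-well plates and exposed to each compound for 48 hours at five concentrations; endpoints were interpolated linearly between bracketing concentrations, or set to the highest concentration if not reached. Abbreviation: GI50, concentration required for 50% inhibition of growth. Definition used: TGI = concentration required for complete inhibition of growth.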

Key:
Experiment in all cases: NCI-60 cell line screen, 48 h
LOX IMVI melanoma = tested on: LOX IMVI melanoma
KM12 colon = tested on: KM12 colon
HCT-15 colon = tested on: HCT-15 colon
UO-31 renal = tested on: UO-31 renal
NCI-H23 lung = tested on: NCI-H23 lung
M14 melanoma = tested on: M14 melanoma
U251 CNS = tested on: U251 CNS
NCI/ADR-RES ovarian = tested on: NCI/ADR-RES ovarian
HCT-116 colon = tested on: HCT-116 colon
MDA-MB-435 = tested on: MDA-MB-435

Structure (SMILES)	TGI (LOX IMVI melanoma) [µM]	TGI (KM12 colon) [µM]	TGI (HCT-15 colon) [µM]	TGI (UO-31 renal) [µM]	TGI (NCI-H23 lung) [µM]	TGI (M14 melanoma) [µM]	GI50 (LOX IMVI melanoma) [µM]	GI50 (HCT-15 colon) [µM]	GI50 (U251 CNS) [µM]	TGI (U251 CNS) [µM]	GI50 (NCI/ADR-RES ovarian) [µM]	TGI (NCI/ADR-RES ovarian) [µM]	GI50 (HCT-116 colon) [µM]	TGI (HCT-116 colon) [µM]	GI50 (NCI-H23 lung) [µM]	GI50 (M14 melanoma) [µM]	GI50 (KM12 colon) [µM]	GI50 (MDA-MB-435) [µM]	TGI (MDA-MB-435) [µM]	GI50 (UO-31 renal) [µM]
COc1cccc(C2=NC(C(C)C)CO2)c1 (configuration not stated)	> 100	> 100	> 100	> 100	> 100	> 100														
COc1cc2c(cc1OCCCNC(=O)c1cccc3c(=O)c4ccccc4[nH]c13)N=C[C@@H]1CCCN1C2=O		13.2	> 100	16.9	< 0.0225	< 0.01	< 0.01	0.114	< 0.01	> 48.8	0.379	> 26.4	< 0.01	> 100	< 0.01	< 0.01				
CCOc1ccc(NC(=O)C(=O)CC(=O)c2c(C)n([O-])c3ccccc3[n+]2=O)cc1	> 100	> 100	> 100	> 100	> 100	> 100				> 100				> 100						
Cn1cc(-c2csc(-c3c[nH]c4ccc(F)cc34)n2)c2cnccc21		3.49	3.36	2.73	3.25	3.27		1.67	1.87	3.4	1.98	3.98	1.22	2.56	1.62	1.74	1.83	1.85	3.31	1.42
O=C1/C(=C/c2ccc(Cl)cc2)CCC1CCN1CCOCC1 (configuration not stated)	> 100	> 100	> 100	> 100	> 100	> 100								> 100						
CC12CP(=O)(c3ccccc3)CC1C2(Cl)Cl (configuration not stated)	> 100	> 100			> 100	> 100				> 100				> 100						
CC(=O)Oc1c2c(c(O)c3ccccc13)C(n1cnc3c(ncn3C3OC(CO)C4OC(C)(C)OC43)c1=N)CCC2 (configuration not stated)	21	29	29.3	29.8	36.7					33.3										
O=c1ccn([C@H]2CSC[C@@H](CO)C2)c(=O)[nH]1	> 100	> 100	> 100	> 100	> 100	> 100				> 100				> 100						
C1CN2CCN3CCN4CCN1[P+]243	> 100	> 100	> 100	> 100	> 100	> 100				> 100				> 100						
COC(=O)C(Cc1nc2ccc(Cl)cc2[nH]c1=O)/C(=N\N)C(=O)Nc1cc(C)c(Cl)cc1S(=O)(=O)O (configuration not stated)	> 100	> 100	> 100	> 100	> 100	> 100				> 100				> 100						
CCOc1ccc(NC(=O)CC#N)cc1	> 100	> 100		> 100	> 100	> 100				> 100				> 100						
